# Article PMC10388363, “Novel 1,4-Dihydropyridines as Specific Binders and Activators of SIRT3 Impair Cell Viability and Clonogenicity and Downregulate Hypoxia-Induced Targets in Cancer Cells” (Journal of Medicinal Chemistry, 2023)
# Legend:
# human SIRT2 = biological target: T1, human SIRT2 (Homo sapiens, UniProt Q8IXJ6); assay: PncA/GDH-coupled deacylation assay, SIRT2 activation (α-tubulin-acK25 substrate); format: biochemical; conditions: for effect on SIRT2: 10 μM compound; for SIRT2 activation: 100 μM compound
# T1 construct: Sirt2-43-356 was expressed from a modified pET19b; SUMO-tag (with TEV protease cleavage site) (N, cleaved yes); His tag (N, cleaved yes); made in house; host or cells: Escherichia coli
# T1 sequence (Q8IXJ6 43-356): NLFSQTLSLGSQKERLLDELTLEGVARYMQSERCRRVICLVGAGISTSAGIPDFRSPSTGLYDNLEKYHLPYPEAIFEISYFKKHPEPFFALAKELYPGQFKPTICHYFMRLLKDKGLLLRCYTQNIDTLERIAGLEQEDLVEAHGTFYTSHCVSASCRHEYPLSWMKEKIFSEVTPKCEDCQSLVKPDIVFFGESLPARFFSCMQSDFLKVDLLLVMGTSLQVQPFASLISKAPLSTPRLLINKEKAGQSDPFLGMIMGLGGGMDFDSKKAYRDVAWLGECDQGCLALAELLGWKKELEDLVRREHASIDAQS
# Description: (§1) To avoid artifacts and other non-specific effects, instead of the “Fluor-de-Lys” (FdL) substrate, we used a PncA/GDH-coupled deacylation assay by measuring the NADPH oxidation to NADP^+ that relies on isoform-specific non-modified physiological acetyl or succinyl substrates [p53-acK381 for SIRT1, α-tubulin-[…] for SIRT2, acetyl-CoA synthetase 2 (ACS2)-acK642 for SIRT3, and CPS1-succK537 for SIRT5].[59] The assays were carried out using the 1,4-DHP derivatives 2a–n and 3a–d against SIRT3, including the prototype compounds 2 and 3 as positive controls.
# (§2) N-terminally his-tagged human sirtuins were expressed in Escherichia coli using constructs in pET15b (Sirt1) or pET151D/Topo (Sirt3-114-380 and Sirt5-34-302).[4],[59],[61] Sirt2-43-356 was expressed from a modified pET19b containing a TEV protease cleavage site and an N-terminal SUMO-tag.[59],[79] Proteins were expressed and purified as described elsewhere.[59],[61],[79]−[81] In brief, proteins were expressed in E. coli, crude extracts were cleared by centrifugation, and the proteins were affinity purified using NiNTA beads.
# (§3) Sirtuin deacylation activities were analyzed by using a coupled enzymatic assay as described in.[59],[82] For initial modulation screenings, substrate peptide specificity analysis, and compound titrations, 1.5 μM sirtuin was incubated with 50 μM substrate peptide and 100 μM NAD^+ in absence or presence of 10 μM, 100 μM or the indicated concentration of 1,4-DHP at a final DMSO concentration of 5%. For kinetic experiments, 1.5 μM sirtuin was incubated with saturating concentrations of either substrate peptide (0.4 mM) or NAD^+ (2 mM), with the second substrate’s concentration being varied in absence or presence of 200 μM 1,4-DHP at a final concentration of 5% DMSO. Potential 1,4-DHP effects on the coupled enzymes GDH and nicotinamidase were tested in control assays containing 50 μM NAM instead of the substrate peptide.
# human SIRT5 = biological target: T2, human SIRT5 (Homo sapiens, UniProt Q9NXA8); assay: PncA/GDH-coupled deacylation assay, SIRT5 activation (CPS1-succK537 substrate); format: biochemical; conditions: for effect on SIRT5: 10 μM compound; for SIRT5 activation: 100 μM compound
# T2 construct: pET151D/Topo (Sirt3-114-380 and Sirt5-34-302); His tag (N, cleaved yes); made in house; host or cells: Escherichia coli
# T2 sequence (Q9NXA8 34-302): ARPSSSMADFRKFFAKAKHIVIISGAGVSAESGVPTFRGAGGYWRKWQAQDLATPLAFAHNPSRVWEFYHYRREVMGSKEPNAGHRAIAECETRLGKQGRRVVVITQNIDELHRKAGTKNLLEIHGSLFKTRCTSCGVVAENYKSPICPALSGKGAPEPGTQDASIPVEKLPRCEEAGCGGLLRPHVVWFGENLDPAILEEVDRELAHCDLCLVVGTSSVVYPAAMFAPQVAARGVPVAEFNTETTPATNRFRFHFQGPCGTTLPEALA
# Description: as §1, §2, §3
effect on SIRT2 (human SIRT2),SIRT2 activation (human SIRT2),effect on SIRT5 (human SIRT5),SIRT5 activation (human SIRT5),Compound
negligible effects,130%,negligible effects,144%,"CCOC(=O)C1=CN(C(=O)c2cccc(OC)c2)C=C(C(=O)OCC)C1c1ccccc1 [Compound 3a, Diethyl 1-(3-methoxybenzoyl)-4-phenyl-1,4-dihydropyridine-3,5-dicarboxylate]"
negligible effects,136%,negligible effects,160%,"CCOC(=O)C1=CN(C(=O)c2ccc(OC)c(OC)c2)C=C(C(=O)OCC)C1c1ccccc1 [Compound 3c, Diethyl 1-(3,4-dimethoxybenzoyl)-4-phenyl-1,4-dihydropyridine-3,5-dicarboxylate]"

Compound,effect on SIRT2 (human SIRT2),SIRT2 activation (human SIRT2),effect on SIRT5 (human SIRT5),SIRT5 activation (human SIRT5)
"CCOC(=O)C1=CN(C(=O)c2cc(OC)cc(OC)c2)C=C(C(=O)OCC)C1c1ccccc1 [Compound 3d, Diethyl 1-(3,5-dimethoxybenzoyl)-4-phenyl-1,4-dihydropyridine-3,5-dicarboxylate]",negligible effects,–,negligible effects,–
